# From patent publication US10131652B2, “Pyrimidinyloxy benzene derivatives as herbicides” (E. I. DU PONT DE NEMOURS AND COMPANY, priority 2014, dated 2018)
# Columns and labels:
# Assay type in all cases: in vivo
# kochia (Kochia scoparia) = assay: Test B pre-/postemergence plant response
# How it was run: (§1)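 Steps: plant seeds in loam soil–sand mix; spray soil preemergence, and in parallel spray 2–10 cm one- to two-leaf plants postemergence; hold ~10 days in greenhouse; visually rate injury against untreated controls (0 = no effect, 100 = complete control).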
# [1] = tested on: Italian ryegrass (Lolium multiflorum); assay: Test B pre-/postemergence plant response
# How it was run: as §1
# [2] = tested on: ragweed (common ragweed, Ambrosia elatior); assay: Test B pre-/postemergence plant response
# How it was run: as §1
# rice (Oryza sativa) = assay: Test C flooded paddy test plant response; conditions: Flood, 250 g ai/ha; scale of 0 to 100 where 0 is no effect and 100 is complete control; 13 to 15 days
# How it was run: (§2)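 Visual injury ratings (0, no effect; 100, complete control) were assigned after 13 to 15 days in a greenhouse, comparing treated plants with controls. Compounds had been added straight into paddy water over 2-leaf-stage plants flooded to 3 cm.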
# [3] = tested on: ducksalad (Heteranthera limosa); assay: Test C flooded paddy test plant response; conditions: Flood, 250 g ai/ha; scale of 0 to 100 where 0 is no effect and 100 is complete control; 13 to 15 days
# How it was run: as §2
# [4] = tested on: barnyardgrass (Echinochloa crus-galli); assay: Test C flooded paddy test plant response; conditions: Flood, 250 g ai/ha; scale of 0 to 100 where 0 is no effect and 100 is complete control; 13 to 15 days
# How it was run: as §2
# [5] = tested on: small-flower umbrella sedge (Cyperus difformis); assay: Test C flooded paddy test plant response; conditions: Flood, 250 g ai/ha; scale of 0 to 100 where 0 is no effect and 100 is complete control; 13 to 15 days
# How it was run: as §2
# [6] = tested on: galium (catchweed bedstraw, Galium aparine); assay: Test D pre-/postemergence plant response
# How it was run: (§3)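 Test chemicals were formulated in a non-phytotoxic solvent mixture containing surfactant and applied either preemergence to seeds in loam–sand soil or postemergence to plants 2 to 18 cm tall (1- to 4-leaf stage). Response was rated visually against controls after 13 to 15 days, from 0 (none) to 100 (complete control).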
# [7] = tested on: velvetleaf (Abutilon theophrasti); assay: Test D pre-/postemergence plant response
# How it was run: as §3
# [8] = tested on: oilseed rape (Brassica napus); assay: Test D pre-/postemergence plant response
# How it was run: as §3
# [9] = tested on: winter wheat (Triticum aestivum); assay: Test D pre-/postemergence plant response
# How it was run: as §3
# corn (Zea mays) = assay: Test D pre-/postemergence plant response
# How it was run: as §3
# [10] = tested on: lambsquarters (Chenopodium album); assay: Test D pre-/postemergence plant response
# How it was run: as §3
# [11] = tested on: Italian ryegrass (Lolium multiflorum); assay: Test D pre-/postemergence plant response
# How it was run: as §3
# [12] = 31 g ai/ha, Postemergence, 0 to 100 scale, 0 no effect, 100 complete control
# [13] = 31 g ai/ha, Preemergence, 0 to 100 scale where 0 is no effect and 100 is complete control
# [14] = 125 g ai/ha, postemergence, 0 to 100 scale, 0 no effect, 100 complete control
# [15] = Preemergence, 125 g ai/ha, 0 to 100 scale where 0 is no effect and 100 is complete control
# [16] = Postemergence, 16 g ai/ha, scale 0 to 100 (0 no effect, 100 complete control)
# [17] = Postemergence, 31 g ai/ha, scale 0 to 100 (0 no effect, 100 complete control)
# [18] = Postemergence, 62 g ai/ha, scale 0 to 100, 0 no effect, 100 complete control
# [19] = Postemergence, 125 g ai/ha, scale 0 to 100, 0 no effect, 100 complete control
# [20] = Preemergence, 16 g ai/ha, scale 0 to 100 (0 no effect, 100 complete control)
# [21] = Preemergence, 31 g ai/ha, scale 0 to 100 (0 no effect, 100 complete control)
# [22] = Preemergence, 62 g ai/ha, scale 0 to 100 (0 no effect, 100 complete control)
# [23] = Preemergence, 125 g ai/ha, 0 to 100 scale (0 no effect, 100 complete control)
compound,measurement,setting,value
FC(F)c1cc(-c2c(Cl)cccc2Oc2ncc(Cl)cn2)on1 [Compound 120],"Plant response rating, Kochia",kochia (Kochia scoparia); [12],90
same,"Plant response rating, Kochia",kochia (Kochia scoparia); [13],80
same,"Plant response rating, Kochia",kochia (Kochia scoparia); [14],90
same,"Plant response rating, Kochia",kochia (Kochia scoparia); [15],90
same,"Plant response rating, Ryegrass, Italian",[1]; [12],30
same,"Plant response rating, Ryegrass, Italian",[1]; [13],40
same,"Plant response rating, Ryegrass, Italian",[1]; [14],90
same,"Plant response rating, Ragweed",[2]; [12],40
same,"Plant response rating, Ragweed",[2]; [13],10
same,"Plant response rating, Ragweed",[2]; [14],70
same,Rice plant response rating,rice (Oryza sativa),90
same,Ducksalad plant response rating,[3],100
same,Barnyardgrass plant response rating,[4],90
same,"Sedge, Umbrella plant response rating",[5],95
same,Galium plant response rating,[6]; [16],98
same,Galium plant response rating,[6]; [17],98
same,"Plant response rating, Galium",[6]; [18],100
same,"Plant response rating, Galium",[6]; [19],100
same,"Plant response rating (scale 0 to 100), Galium","[6]; Preemergence, 125 g ai/ha",90
same,"Plant response rating, Galium",[6]; [20],90
same,"Plant response rating, Galium",[6]; [21],98
same,"Plant response rating, Galium",[6]; [22],90
same,Velvetleaf plant response rating,[7]; [16],70
same,Velvetleaf plant response rating,[7]; [17],85
same,"Plant response rating, Velvetleaf",[7]; [18],100
same,"Plant response rating, Velvetleaf",[7]; [19],100
same,"Plant response rating (scale 0 to 100), Velvetleaf","[7]; Preemergence, 125 g ai/ha",100
same,"Plant response rating, Velvetleaf",[7]; [20],50
same,"Plant response rating, Velvetleaf",[7]; [21],75
same,"Plant response rating, Velvetleaf",[7]; [22],100
same,Oilseed Rape plant response rating,[8]; [16],80
same,Oilseed Rape plant response rating,[8]; [17],85
same,"Plant response rating, Oilseed Rape",[8]; [18],90
same,"Plant response rating, Oilseed Rape",[8]; [19],95
same,"Plant response rating (scale 0 to 100), Oilseed Rape","[8]; Preemergence, 125 g ai/ha",100
same,"Plant response rating, Oilseed Rape",[8]; [20],50
same,"Plant response rating, Oilseed Rape",[8]; [21],90
same,"Plant response rating, Oilseed Rape",[8]; [22],95
same,Wheat plant response rating,[9]; [16],0
same,Wheat plant response rating,[9]; [17],0
same,"Plant response rating, Wheat",[9]; [18],0
same,"Plant response rating, Wheat",[9]; [19],0
same,"Plant response rating (scale 0 to 100), Wheat","[9]; Preemergence, 125 g ai/ha",5
same,"Plant response rating, Wheat",[9]; [20],0
same,"Plant response rating, Wheat",[9]; [21],0
same,"Plant response rating, Wheat",[9]; [22],5
same,Corn plant response rating,corn (Zea mays); [16],15
same,Corn plant response rating,corn (Zea mays); [17],15
same,"Plant response rating, Corn",corn (Zea mays); [18],10
same,"Plant response rating, Corn",corn (Zea mays); [19],15
same,"Plant response rating (scale 0 to 100), Corn","corn (Zea mays); Preemergence, 125 g ai/ha",75
same,"Plant response rating, Corn",corn (Zea mays); [20],0
same,"Plant response rating, Corn",corn (Zea mays); [21],35
same,"Plant response rating, Corn",corn (Zea mays); [22],25
same,Lambsquarters plant response rating,[10]; [16],100
same,Lambsquarters plant response rating,[10]; [17],100
same,"Plant response rating, Lambsquarters",[10]; [18],100
same,"Plant response rating, Lambsquarters",[10]; [19],100
same,"Plant response rating (scale 0 to 100), Lambsquarters","[10]; Preemergence, 125 g ai/ha",100
same,"Plant response rating, Lambsquarters",[10]; [20],70
same,"Plant response rating, Lambsquarters",[10]; [21],95
same,"Plant response rating, Lambsquarters",[10]; [22],90
same,"Ryegrass, Italian plant response rating",[11]; [16],5
same,"Ryegrass, Italian plant response rating",[11]; [17],5
same,"Plant response rating, Ryegrass, Italian",[11]; [18],10
same,"Plant response rating, Ryegrass, Italian",[11]; [19],50
same,"Plant response rating (scale 0 to 100), Ryegrass, Italian","[11]; Preemergence, 125 g ai/ha",90
same,"Plant response rating, Ryegrass, Italian",[11]; [20],5
same,"Plant response rating, Ryegrass, Italian",[11]; [21],35
same,"Plant response rating, Ryegrass, Italian",[11]; [22],90
FC(F)c1cc(-c2c(Cl)cccc2Oc2ncc(Br)cn2)on1 [Compound 121],"Plant response rating, Kochia",kochia (Kochia scoparia); [12],90
same,"Plant response rating, Kochia",kochia (Kochia scoparia); [13],60
same,"Plant response rating, Kochia",kochia (Kochia scoparia); [14],90
same,"Plant response rating, Kochia",kochia (Kochia scoparia); [15],100
same,"Plant response rating, Ryegrass, Italian",[1]; [12],50
same,"Plant response rating, Ryegrass, Italian",[1]; [13],30
same,"Plant response rating, Ryegrass, Italian",[1]; [14],70
same,"Plant response rating, Ragweed",[2]; [12],50
same,"Plant response rating, Ragweed",[2]; [13],10
same,"Plant response rating, Ragweed",[2]; [14],60
same,Rice plant response rating,rice (Oryza sativa),45
same,Ducksalad plant response rating,[3],90
same,Barnyardgrass plant response rating,[4],60
same,"Sedge, Umbrella plant response rating",[5],90
same,Galium plant response rating,[6]; [17],90
same,"Plant response rating, Galium",[6]; [18],100
same,"Plant response rating, Galium",[6]; [19],95
same,Velvetleaf plant response rating,[7]; [17],80
same,"Plant response rating, Velvetleaf",[7]; [18],80
same,"Plant response rating, Velvetleaf",[7]; [19],85
same,Oilseed Rape plant response rating,[8]; [17],80
same,"Plant response rating, Oilseed Rape",[8]; [18],95
same,"Plant response rating, Oilseed Rape",[8]; [19],95
same,Wheat plant response rating,[9]; [17],0
same,"Plant response rating, Wheat",[9]; [18],0
same,"Plant response rating, Wheat",[9]; [19],0
same,Corn plant response rating,corn (Zea mays); [16],10
same,Corn plant response rating,corn (Zea mays); [17],20
same,"Plant response rating, Corn",corn (Zea mays); [18],20
same,"Plant response rating, Corn",corn (Zea mays); [19],25
same,Lambsquarters plant response rating,[10]; [17],100
same,"Plant response rating, Lambsquarters",[10]; [18],100
same,"Plant response rating, Lambsquarters",[10]; [19],100
same,"Ryegrass, Italian plant response rating",[11]; [17],10
same,"Plant response rating, Ryegrass, Italian",[11]; [18],40
same,"Plant response rating, Ryegrass, Italian",[11]; [19],55
Fc1cccc(Oc2ncc(Cl)cn2)c1-c1cc(C2CC2)on1 [Compound 130],"Plant response rating, Kochia",kochia (Kochia scoparia); [13],50
same,"Plant response rating, Kochia",kochia (Kochia scoparia); [14],90
same,Kochia plant response rating,kochia (Kochia scoparia); [23],70
same,"Plant response rating, Ryegrass, Italian",[1]; [13],20
same,"Plant response rating, Ryegrass, Italian",[1]; [14],60
same,"Ryegrass, Italian plant response rating",[1]; [23],50
same,"Plant response rating, Ragweed",[2]; [13],10
same,"Plant response rating, Ragweed",[2]; [14],60
same,Ragweed plant response rating,[2]; [23],20
same,Rice plant response rating,rice (Oryza sativa),30
same,Ducksalad plant response rating,[3],90
same,Barnyardgrass plant response rating,[4],65
same,"Sedge, Umbrella plant response rating",[5],90
same,Galium plant response rating,[6]; [17],90
same,"Plant response rating, Galium",[6]; [18],95
same,"Plant response rating, Galium",[6]; [19],100
same,Velvetleaf plant response rating,[7]; [17],80
same,"Plant response rating, Velvetleaf",[7]; [18],75
same,"Plant response rating, Velvetleaf",[7]; [19],100
same,Oilseed Rape plant response rating,[8]; [17],80
same,"Plant response rating, Oilseed Rape",[8]; [18],75
same,"Plant response rating, Oilseed Rape",[8]; [19],95
same,Wheat plant response rating,[9]; [17],5
same,"Plant response rating, Wheat",[9]; [18],30
same,"Plant response rating, Wheat",[9]; [19],35
same,Corn plant response rating,corn (Zea mays); [16],10
same,Corn plant response rating,corn (Zea mays); [17],25
same,"Plant response rating, Corn",corn (Zea mays); [18],10
same,"Plant response rating, Corn",corn (Zea mays); [19],10
same,Lambsquarters plant response rating,[10]; [17],100
same,"Plant response rating, Lambsquarters",[10]; [18],100
same,"Plant response rating, Lambsquarters",[10]; [19],100
same,"Ryegrass, Italian plant response rating",[11]; [17],5
same,"Plant response rating, Ryegrass, Italian",[11]; [18],10
same,"Plant response rating, Ryegrass, Italian",[11]; [19],15
